Experimental data: BindingDB's records for doi:10.1021/cb900195c (University of Pittsburgh, 2009)

What was measured:
[1] = target: Protein Nef/Tyrosine-protein kinase HCK (Homo sapiens, UniProt P03406+P08631); experiment: In Vitro Kinase Assay; conditions: 25 °C
Excerpt: (§1) In vitro kinase activity of Nef-Hck complex and Hck alone using Z'-lyte kinase assay system and Tyr2 peptide substrate from Invitrogen.

[2] = target: Tyrosine-protein kinase HCK (Homo sapiens, UniProt P08631); experiment: In Vitro Kinase Assay; conditions: 25 °C
Tyrosine-protein kinase HCK, sequence (P08631 whole entry): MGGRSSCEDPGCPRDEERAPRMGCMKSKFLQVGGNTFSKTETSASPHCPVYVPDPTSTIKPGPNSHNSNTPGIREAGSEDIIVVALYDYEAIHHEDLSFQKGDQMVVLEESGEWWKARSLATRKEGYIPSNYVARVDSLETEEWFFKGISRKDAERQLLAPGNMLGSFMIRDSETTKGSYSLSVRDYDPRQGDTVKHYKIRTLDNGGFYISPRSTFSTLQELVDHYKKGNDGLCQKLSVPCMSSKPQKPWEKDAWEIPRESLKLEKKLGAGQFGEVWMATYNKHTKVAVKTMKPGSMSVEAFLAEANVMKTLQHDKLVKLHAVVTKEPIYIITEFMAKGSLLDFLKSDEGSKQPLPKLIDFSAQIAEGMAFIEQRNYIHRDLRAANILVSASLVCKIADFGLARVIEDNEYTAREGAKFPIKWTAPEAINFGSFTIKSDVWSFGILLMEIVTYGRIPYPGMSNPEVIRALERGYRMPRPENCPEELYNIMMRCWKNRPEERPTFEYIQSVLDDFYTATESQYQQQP
Excerpt: as §1

Protein Nef/Tyrosine-protein kinase HCK, sequence (P08631 whole entry, other chains not shown): as the sequence (P08631 whole entry) above

SMILES | IC50 [1] | IC50 [2]
OCCCCNc1ncnc2oc(-c3ccccc3)c(-c3ccccc3)c12 [DFP-4AB] | 16 µM | > 30 µM
c1ccc(-c2oc3ncnc(NCCCc4ccco4)c3c2-c2ccccc2)cc1 [DFP-4APF] | 2 µM | > 30 µM
OCCCNc1ncnc2oc(-c3ccccc3)c(-c3ccccc3)c12 [DFP-4AP] | 5.1 µM | 12.8 µM
Nc1ncnc2oc(-c3ccccc3)c(-c3ccccc3)c12 [DFP-4A] | > 30 µM | > 30 µM
